Measured values from patent publication US6626982B1, “Compound storage” (AstraZeneca AB, priority 1998, dated 2003).
“And” between values parts separate entries of the source, which are not always exact repeats. Identical values can stand only once.

Key:
[1] = Adsorption onto Florisil and desorption into DMSO, quantified by RP-HPLC against a 10 mM control solution; assay type: physicochemical; settings: for Conc. (mM) of Z-Trp-NH2 in DMSO after desorption from Florisil: nominal conc. 10 mM; for Conc. (mM) of Z-Trp-NH2 in DMSO after desorption from Florisil / Conc. (mM) of Compound in DMSO after desorption from Florisil: control 10.00
Procedure: 1. 16.9 mg (50 μmol) of Z-Trp-NH2 in DMSO (0.5-5 ml) added to carrier (100 mg, 225 mg and 475 mg).
3. Evaporate off DMSO using centrifugal evaporator (70°/1 hr).
4. Mix resulting solid with spatula to ensure distribution as even as possible.
5. Weigh duplicate samples (to contain nominal 10 μmol Z-Trp-NH2) into vials.
6. Add DMSO to achieve 10^−2M conc. (nominal).
7. Dilute for HPLC analysis and compare with 10^−2M control solution of Z-Trp-NH2 similarly diluted.
Z-Trp-NH2 (169 mg) was dissolved in DMSO (50 ml) to give a 10 mM solution. Aliquots of the solution (5 ml, 50 μmol) were added to a 100 mg and a 225 mg sample of Florisil™ in 2-dram glass vials. The samples were vortexed for approximately one minute and the DMSO removed in vacuo by evaporation at 70° for 1 h in a centrifugal evaporator (GeneVac Atlas HT4™). After evaporation the samples were removed and checked visually. In each case dry solids were obtained in the form of free flowing powders virtually indistinguishable from the original Florisil™. The nominal loadings of the adsorbed samples were calculated as 207 and 427 μmol/g of Z-Trp-NH2.
Duplicate amounts (11.7 and 24.2 mg respectively) of the 427 and 207 μmol/g Z-Trp-NH2/Florisil™ samples were weighed into glass vials. DMSO (0.5 ml) was added to each vial and the vials were agitated gently for 15 min to give a nominal concentration of 10 mM of Z-Trp-NH2. Aliquots from each vial were diluted 100-fold with CH3CN and analysed by RP-HPLC monitoring by UV at […]. The peak areas obtained for the desorbed Z-Trp-NH2 DMSO solutions were compared with those obtained using a 10 mM control soln of Z-Trp-NH2 in DMSO similarly diluted.
Using a procedure analogous to that used for Z-Trp-NH2 the following results were obtained (Table 4 and FIG. 3)

[2] = Stability of Fmoc-Arg in DMSO and when adsorbed onto Florisil (HPLC); assay type: physicochemical
[3] = ratio of compound to Florisil 200.0 μmol/g
[4] = ratio of compound to Florisil 200.1 μmol/g
[5] = ratio of compound to Florisil 397.5 μmol/g
[6] = ratio of compound to Florisil 400.6 μmol/g

| Compound | Conc. (mM) of Z-Trp-NH2 in DMSO after desorption from Florisil ([1]; ratio of Z-Trp-NH2 to Florisil 200 μmol/g) | Conc. (mM) of Z-Trp-NH2 in DMSO after desorption from Florisil ([1]; ratio of Z-Trp-NH2 to Florisil 400 μmol/g) | Conc. (mM) of Compound in DMSO after desorption from Florisil [1, 3] [mM] | Conc. (mM) of Compound in DMSO after desorption from Florisil [1, 4] [mM] | Conc. (mM) of Compound in DMSO after desorption from Florisil [1, 5] [mM] | Conc. (mM) of Compound in DMSO after desorption from Florisil [1, 6] [mM] | Decomposition in DMSO ([2]; 10^-2 M in DMSO, after 24 hours at ambient temperature) | Stability when adsorbed onto Florisil ([2]; adsorbed onto Florisil, some decomposition during adsorption/desorption when DMSO is present) | Detection by HPLC after centrifugal evaporation and dissolution into DMSO ([2]; control experiment, no Florisil added) | Overall adsorption/desorption result with Florisil ([1]; comparable to those obtained with Z-Trp-NH2) |
| --- | --- | --- | --- | --- | --- | --- | --- | --- | --- | --- |
| NC(=O)[C@H](Cc1c[nH]c2ccccc12)NC(=O)OCc1ccccc1 [Z-Trp-NH2] | 9.21 mM and 9.79 mM | 10.26 mM and 10.09 mM | – | – | – | – | – | – | – | – |
| Cl.NC(=O)[C@@H](N)Cc1c[nH]c2ccccc12 [Trp-NH2.HCl, Tryptophan amide hydrochloride] | – | – | 10.04 | 10.31 | 11.93 | 10.51 | – | – | – | – |
| N=C(N)NCCC[C@H](NC(=O)OCC1c2ccccc2-c2ccccc21)C(=O)O [Fmoc-Arg, Fmoc-Arginine] | – | – | 7.70 | 7.65 | 5.11 | 5.53 | decomposes completely | stable | not possible to detect any Fmoc-Arg | apparent low release |
| Boc-Naphthylalanine [Boc-Nal] | – | – | 9.10 | 9.06 | 9.64 | 9.64 | – | – | – | – |
| Boc-Pyridylalanine [Boc-Pal] | – | – | 9.75 | 14.20 | 11.06 | 10.63 | – | – | – | – |
